Results on four molecules are retold here after ChEMBL document CHEMBL5465560, “Selectivity Literature for EUbOPEN Chemogenomic Library” (2024).

The target of experiment [1] is T1, Interleukin-1 receptor-associated kinase 4 (Homo sapiens) (UniProt Q9NWZ3).
T1 sequence (whole entry): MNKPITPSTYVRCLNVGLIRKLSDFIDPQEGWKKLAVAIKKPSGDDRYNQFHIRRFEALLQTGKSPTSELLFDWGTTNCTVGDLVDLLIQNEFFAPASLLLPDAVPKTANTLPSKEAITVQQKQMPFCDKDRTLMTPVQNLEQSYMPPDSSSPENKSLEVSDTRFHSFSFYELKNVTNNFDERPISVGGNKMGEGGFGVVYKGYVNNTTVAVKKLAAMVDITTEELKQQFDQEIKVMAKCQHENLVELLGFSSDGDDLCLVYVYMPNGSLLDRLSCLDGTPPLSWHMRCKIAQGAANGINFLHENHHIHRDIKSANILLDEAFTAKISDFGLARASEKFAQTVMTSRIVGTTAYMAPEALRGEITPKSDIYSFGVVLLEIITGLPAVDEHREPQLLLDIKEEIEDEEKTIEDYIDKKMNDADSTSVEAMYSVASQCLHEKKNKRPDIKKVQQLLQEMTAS
In words: Selectivity interaction (ProQinase) EUB0000171b IRAK4.

Experiment [2] has as its target T2, Cyclin-dependent kinase 11A (Homo sapiens) (UniProt Q9UQ88).
T2 sequence (whole entry): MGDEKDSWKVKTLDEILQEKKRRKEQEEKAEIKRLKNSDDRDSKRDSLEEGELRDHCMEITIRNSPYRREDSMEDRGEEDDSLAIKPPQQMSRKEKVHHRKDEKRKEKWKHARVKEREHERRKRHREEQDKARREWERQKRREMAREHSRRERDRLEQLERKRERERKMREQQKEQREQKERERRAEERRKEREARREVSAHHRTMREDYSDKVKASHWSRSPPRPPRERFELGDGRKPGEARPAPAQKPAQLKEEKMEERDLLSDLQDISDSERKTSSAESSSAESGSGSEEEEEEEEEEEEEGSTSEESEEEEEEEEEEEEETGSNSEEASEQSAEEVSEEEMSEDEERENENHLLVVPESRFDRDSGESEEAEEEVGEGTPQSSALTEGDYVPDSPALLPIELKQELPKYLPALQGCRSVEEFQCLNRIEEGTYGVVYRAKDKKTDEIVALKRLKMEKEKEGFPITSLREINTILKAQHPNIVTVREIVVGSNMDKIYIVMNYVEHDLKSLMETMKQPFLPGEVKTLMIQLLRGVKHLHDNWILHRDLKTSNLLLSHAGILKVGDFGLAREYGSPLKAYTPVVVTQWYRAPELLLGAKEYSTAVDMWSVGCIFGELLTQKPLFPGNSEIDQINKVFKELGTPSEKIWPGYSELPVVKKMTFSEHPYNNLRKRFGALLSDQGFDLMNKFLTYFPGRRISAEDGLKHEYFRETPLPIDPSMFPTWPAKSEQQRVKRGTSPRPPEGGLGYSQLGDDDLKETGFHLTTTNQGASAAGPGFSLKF
Put plainly: Selectivity interaction (ActivX KiNativ screen (kinase selectivity in THP-1 cell lysates)) EUB0000639a CDK11A. Format: subcellular. Conditions: lysate.

Experiment [3] addresses Serine/threonine-protein kinase MRCK gamma (Homo sapiens) (UniProt Q6DT37). Put plainly: Selectivity interaction (KinomeScan (DiscoverX)) EUB0000229b CDC42BPG. The following applies: at 10 µM.
Experiment [4] concerns the target T3, Phosphatidylinositol 4,5-bisphosphate 3-kinase catalytic subunit delta isoform (Homo sapiens) (UniProt O00329).
T3 sequence (whole entry): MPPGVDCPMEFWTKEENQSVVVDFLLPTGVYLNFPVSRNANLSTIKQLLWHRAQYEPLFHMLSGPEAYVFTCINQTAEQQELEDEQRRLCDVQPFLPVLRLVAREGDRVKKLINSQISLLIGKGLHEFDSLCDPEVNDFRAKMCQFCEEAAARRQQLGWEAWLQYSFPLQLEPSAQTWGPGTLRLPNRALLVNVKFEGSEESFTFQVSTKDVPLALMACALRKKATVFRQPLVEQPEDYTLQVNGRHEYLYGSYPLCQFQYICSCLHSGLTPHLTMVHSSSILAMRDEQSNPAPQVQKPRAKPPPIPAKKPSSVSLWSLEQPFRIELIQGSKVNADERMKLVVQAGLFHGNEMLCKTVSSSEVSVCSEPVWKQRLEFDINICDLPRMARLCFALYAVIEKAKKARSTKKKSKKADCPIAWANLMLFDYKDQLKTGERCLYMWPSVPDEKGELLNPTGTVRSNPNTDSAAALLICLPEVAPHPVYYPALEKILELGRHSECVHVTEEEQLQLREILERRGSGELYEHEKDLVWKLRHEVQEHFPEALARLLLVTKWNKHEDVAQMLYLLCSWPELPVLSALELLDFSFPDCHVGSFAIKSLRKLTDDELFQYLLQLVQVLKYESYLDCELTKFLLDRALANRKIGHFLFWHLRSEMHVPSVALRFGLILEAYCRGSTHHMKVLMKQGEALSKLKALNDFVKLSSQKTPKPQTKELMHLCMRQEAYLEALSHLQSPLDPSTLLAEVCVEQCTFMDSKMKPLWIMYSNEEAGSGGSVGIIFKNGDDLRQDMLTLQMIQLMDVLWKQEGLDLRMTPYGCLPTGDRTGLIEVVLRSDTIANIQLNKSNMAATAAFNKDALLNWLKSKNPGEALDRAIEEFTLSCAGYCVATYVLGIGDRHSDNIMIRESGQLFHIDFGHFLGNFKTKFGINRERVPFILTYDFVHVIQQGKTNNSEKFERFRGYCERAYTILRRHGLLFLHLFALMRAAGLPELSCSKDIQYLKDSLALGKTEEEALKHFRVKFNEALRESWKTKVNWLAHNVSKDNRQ
Put plainly: Selectivity interaction (KinomeScan (DiscoverX)) EUB0000595a PIK3CD. The following applies: at 10 µM.

Sequence of Serine/threonine-protein kinase MRCK gamma (Homo sapiens) (Q6DT37 whole entry, canonical isoform): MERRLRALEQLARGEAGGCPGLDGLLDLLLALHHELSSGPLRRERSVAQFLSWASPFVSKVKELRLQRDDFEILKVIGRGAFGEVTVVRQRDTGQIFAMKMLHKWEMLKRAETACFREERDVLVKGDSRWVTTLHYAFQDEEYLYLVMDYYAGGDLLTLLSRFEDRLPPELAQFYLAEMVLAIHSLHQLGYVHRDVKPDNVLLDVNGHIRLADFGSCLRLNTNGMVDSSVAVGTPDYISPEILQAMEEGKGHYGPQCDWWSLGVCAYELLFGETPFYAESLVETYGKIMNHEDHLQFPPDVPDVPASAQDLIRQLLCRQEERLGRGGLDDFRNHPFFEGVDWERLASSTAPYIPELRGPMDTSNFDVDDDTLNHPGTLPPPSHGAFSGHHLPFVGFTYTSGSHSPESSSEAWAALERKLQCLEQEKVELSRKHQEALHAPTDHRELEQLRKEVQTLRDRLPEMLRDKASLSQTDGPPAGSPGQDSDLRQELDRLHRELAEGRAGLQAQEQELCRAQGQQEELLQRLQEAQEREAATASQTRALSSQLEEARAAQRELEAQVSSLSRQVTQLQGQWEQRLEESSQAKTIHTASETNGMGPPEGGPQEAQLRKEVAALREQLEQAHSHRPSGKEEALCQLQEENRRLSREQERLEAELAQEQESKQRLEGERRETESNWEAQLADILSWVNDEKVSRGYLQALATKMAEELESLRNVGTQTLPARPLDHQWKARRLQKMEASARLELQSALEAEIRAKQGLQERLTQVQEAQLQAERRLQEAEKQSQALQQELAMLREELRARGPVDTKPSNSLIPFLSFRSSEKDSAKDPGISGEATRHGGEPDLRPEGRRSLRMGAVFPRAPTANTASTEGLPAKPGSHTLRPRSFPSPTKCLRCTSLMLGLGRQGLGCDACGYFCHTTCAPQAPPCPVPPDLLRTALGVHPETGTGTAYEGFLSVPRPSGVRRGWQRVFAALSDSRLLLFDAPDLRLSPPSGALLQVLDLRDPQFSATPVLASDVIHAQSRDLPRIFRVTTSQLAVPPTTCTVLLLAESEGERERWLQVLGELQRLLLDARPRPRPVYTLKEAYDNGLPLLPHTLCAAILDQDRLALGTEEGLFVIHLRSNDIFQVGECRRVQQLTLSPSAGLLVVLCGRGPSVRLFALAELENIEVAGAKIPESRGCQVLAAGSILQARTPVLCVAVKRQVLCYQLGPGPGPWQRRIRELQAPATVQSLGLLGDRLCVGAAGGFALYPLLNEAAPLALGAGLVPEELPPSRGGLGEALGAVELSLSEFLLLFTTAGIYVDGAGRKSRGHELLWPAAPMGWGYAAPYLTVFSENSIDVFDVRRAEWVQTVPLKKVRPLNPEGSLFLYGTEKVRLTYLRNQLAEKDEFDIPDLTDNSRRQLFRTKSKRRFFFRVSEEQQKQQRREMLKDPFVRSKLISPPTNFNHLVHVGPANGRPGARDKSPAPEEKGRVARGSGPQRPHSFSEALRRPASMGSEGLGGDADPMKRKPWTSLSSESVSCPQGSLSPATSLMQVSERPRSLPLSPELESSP

For the molecule `C=CC(=O)Nc1cccc(C(=O)Nc2ccc(Nc3cc(-c4[nH]c(SC)nc4C)ccn3)cc2)c1`, the % of control was found to be 85% in experiment [1] (at 1 µM) and 56% in experiment [1] (at 5 µM).
Consider `CC[C@@H]1[C@H](F)C(=O)N[C@@H]1COc1nccc2cc(C(N)=O)c(OC)cc12` [ZIMLOVISERTIB], for which the % of inhibition was 10.4% in experiment [2] (at 0.01 µM); -11.1% in experiment [2] (at 0.04 µM); 2.6% in experiment [2] (at 0.2 µM); 7.8% in experiment [2] (at 1 µM); 18.7% in experiment [2] (at 5 µM).
Take `COc1cc(N(C)c2ccnc3ccc(C(F)(F)F)cc23)cc(OC)c1OC`: in experiment [3], the % binding came to 94%.
As to `COCC(=O)NC/C=C/c1ccc2ncnc(Nc3ccc(Oc4ccc(C)nc4)c(C)c3)c2c1` [CP-724714], the % of control in experiment [4] was 100%.
